Experimental data taken from patent US8163909B2, “Substituted hydroxyethyl amine compounds as beta-secretase modulators and methods of use” (Amgen Inc., priority 2007, dated 2012).
Like-named read-outs stand apart in the source and are kept apart here.

What was measured:
[1] = biological target: Beta Secretase enzyme (BACE) (Homo sapiens, UniProt P56817); test: In vitro enzymatic BACE FRET (fluorescence resonance energy transfer) assay; type: biochemical;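 note: fluorescence read after 1 h with 50 nM quenched peptide substrate spanning the BACE cleavage site, in pH 4.2 acetate buffer containing 10% DMSO and nonionic detergent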
Sequence of Beta Secretase enzyme (BACE) (P56817 46-501): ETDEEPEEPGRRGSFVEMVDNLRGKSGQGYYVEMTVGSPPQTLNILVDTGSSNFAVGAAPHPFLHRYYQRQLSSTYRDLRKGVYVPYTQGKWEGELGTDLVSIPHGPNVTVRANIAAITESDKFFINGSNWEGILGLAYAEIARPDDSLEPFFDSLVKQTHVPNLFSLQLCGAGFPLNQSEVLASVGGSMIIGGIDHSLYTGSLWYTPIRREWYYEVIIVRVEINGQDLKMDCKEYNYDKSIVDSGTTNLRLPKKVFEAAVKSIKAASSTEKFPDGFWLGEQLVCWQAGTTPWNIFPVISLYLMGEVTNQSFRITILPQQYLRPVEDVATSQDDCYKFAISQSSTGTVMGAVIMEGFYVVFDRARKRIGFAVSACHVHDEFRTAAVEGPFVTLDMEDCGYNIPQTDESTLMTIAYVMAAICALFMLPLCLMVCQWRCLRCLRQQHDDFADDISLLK

Abeta peptide = test: In vivo inhibition of beta-secretase (reduction of Abeta peptide in brain and cerebrospinal fluid); design: species or system rat; conditions: Rattus norvegicus, po, 4 h, rat cerebrospinal fluid, orally administered at 30 mg/kg dose, measured after 4 hours; read-out: percent reduction of abeta peptide in the cerebrospinal fluid of the rat;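 note: abeta peptide quantified by sandwich ELISA with electrochemiluminescence readout in rat brain supernatant or CSF, relative to vehicle-dosed control animals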
[2] = Microsomal stability assay, human liver microsomes;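 note: pooled human liver microsomes at 0.25 mg/mL with 1 µM compound and NADPH at 37 °C, pH 7.4, for 30 min, unchanged parent quantified by LC-MS/MS against the 0 min sample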
[3] = tested on: Aβ40 in conditioned medium of cells stably expressing Amyloid Precursor Protein (APP); test: In vitro BACE cell-based assay (Aβ40 in conditioned medium, sandwich ELISA); conditions: Homo sapiens;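 note: compounds added as a dilution series, secreted peptide quantified by europium time-resolved fluorescence readout, potency fitted from percent of control versus compound concentration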
CYP2D6 = CYP2D6 (Homo sapiens, UniProt P10635); test: CYP2D6 inhibition assay (bufuralol, pooled human liver microsomes)
Sequence of CYP2D6 (P10635 whole entry): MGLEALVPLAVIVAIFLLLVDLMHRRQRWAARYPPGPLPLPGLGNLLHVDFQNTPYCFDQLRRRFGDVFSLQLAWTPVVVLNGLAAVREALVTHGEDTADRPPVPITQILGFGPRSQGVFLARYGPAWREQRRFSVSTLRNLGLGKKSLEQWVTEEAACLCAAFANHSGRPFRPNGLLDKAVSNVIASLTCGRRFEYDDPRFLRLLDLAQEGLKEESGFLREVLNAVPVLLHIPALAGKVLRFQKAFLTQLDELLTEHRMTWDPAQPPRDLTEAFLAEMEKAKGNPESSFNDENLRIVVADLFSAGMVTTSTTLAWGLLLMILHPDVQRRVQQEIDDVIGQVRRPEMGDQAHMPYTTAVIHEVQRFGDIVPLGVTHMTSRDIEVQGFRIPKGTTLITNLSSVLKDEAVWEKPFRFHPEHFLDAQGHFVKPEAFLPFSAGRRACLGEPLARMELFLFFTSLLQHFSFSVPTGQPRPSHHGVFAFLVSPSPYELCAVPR

[4] = Microsomal stability assay, rat liver microsomes;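 note: rat liver microsomes (0.25 mg/mL) with about 1 µM compound plus 1 mM NADPH, pH 7.4, 37 °C for 30 min, parent left measured by LC-MS/MS against 0 min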
CYP3A4 (CYP3A) = CYP3A4 (CYP3A) (Homo sapiens, UniProt P08684); test: in vitro; conditions: microsomes, pH 7.4;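 note: inhibition of CYP3A-mediated 1-hydroxymidazolam formation after 10 min incubation with NADPH, quantified by HPLC MS relative to metabolite produced without test compound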
Sequence of CYP3A4 (CYP3A) (P08684 2-503): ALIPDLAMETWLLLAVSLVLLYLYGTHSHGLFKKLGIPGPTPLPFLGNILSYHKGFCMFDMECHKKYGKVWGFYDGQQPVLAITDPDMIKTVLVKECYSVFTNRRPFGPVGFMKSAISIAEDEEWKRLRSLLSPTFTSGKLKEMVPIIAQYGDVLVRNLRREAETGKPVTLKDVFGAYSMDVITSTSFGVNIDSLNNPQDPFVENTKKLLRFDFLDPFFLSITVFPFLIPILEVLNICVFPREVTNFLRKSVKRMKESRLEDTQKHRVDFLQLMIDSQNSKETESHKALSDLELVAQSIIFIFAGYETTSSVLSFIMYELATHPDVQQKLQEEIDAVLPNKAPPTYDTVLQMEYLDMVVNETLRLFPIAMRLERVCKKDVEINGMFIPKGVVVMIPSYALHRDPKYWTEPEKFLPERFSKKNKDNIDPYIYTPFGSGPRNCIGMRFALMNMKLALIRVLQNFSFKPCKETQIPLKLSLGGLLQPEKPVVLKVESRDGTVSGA

[5] = read-out: BACE1 FRET assay (IC50)
[6] = HEK293, HEK cells, read-out: HEK cell assay (IC50)
[7] = BACE enzyme assay IC50, read-out: BACE1 FRET assay
[8] = HEK293, HEK cell-based assay IC50, read-out: HEK cell assay
[9] = 2D6 IC50 (uM), CYP2D6 inhibition
[10] = BACE enzyme assay, IC50's in uM, read-out: BACE1 FRET assay
[11] = HEK293, cell-based assay, HEK cells, IC50's in uM, read-out: HEK cell assay
[12] = 2D6 IC50, CYP enzyme inhibition
[13] = BACE enzyme assay, read-out: BACE1 FRET assay
[14] = HEK293, HEK cells, read-out: HEK cell assay
[15] = 2D6 IC50 (uM), CYP enzyme inhibition

Structure (SMILES)	HLM ([2]; human liver microsomes) [µL/min/mg]	RLM ([4]; rat liver microsomes) [µL/min/mg]	IC50 [1, 7] [µM]	IC50 (CYP3A4 (CYP3A)) [nM]	IC50 [3, 8] [µM]	IC50 (CYP2D6; [9]) [µM]	HLM ([2]; human liver microsomal data) [µL/min/mg]	RLM ([4]; rat liver microsomal data) [µL/min/mg]	other results
COCC(=O)N[C@@H](Cc1cc(F)cc(F)c1)[C@H](O)CN[C@H]1CC2(CCC2)Oc2c1cc(CC(C)(C)C)nc2-c1cncn1C [Example 597]	22	35							IC50 [1, 5]: 0.034 µM; inhibition in vivo at 30 mg/kg (Abeta peptide): 10 to 80%; IC50 [3, 6]: 0.011 µM; IC50 (CYP2D6; 2D6 IC50, CYP2D6 inhibition): 2.8 µM
COCC(=O)N[C@@H](Cc1cc(F)cc(F)c1)[C@H](O)CN[C@H]1CC2(CCC2)Oc2c1cc(CC(C)C)nc2-c1nccn1C [compound 714]	20	43	0.016	≤ 30	0.017	2.2			
CO[C@H](C)C(=O)N[C@@H](Cc1ccc2c(c1)OCO2)[C@H](O)CN[C@H]1CC2(CCC2)Oc2c1cc(CC(C)C)nc2-c1ccncc1 [compound 670]	40	100	0.06	≤ 30	0.294	0.8			
COCC(=O)N[C@@H](Cc1cccc(-c2nccs2)c1)[C@H](O)CN[C@H]1CC2(CCC2)Oc2ncc([C@@H]3CC3(C)C)cc21 [compound 857, N-((1S,2R)-3-(((4′S)-6′-((1R)-2,2-dimethylcyclopropyl)-3′,4′-dihydrospiro[cyclobutane-1,2′-pyrano[2,3-b]pyridin]-4′-yl)amino)-2-hydroxy-1-(3-(1,3-thiazol-2-yl)benzyl)propyl)-2-methoxyacetamide]				100			51	46	IC50 [1, 10]: 0.004 µM; IC50 [3, 11]: 0.008 µM; IC50 (CYP2D6; [12]): 0.35 µM
CN1CCO[C@H](C(=O)N[C@@H](Cc2ccc(F)cc2)[C@H](O)CN[C@H]2CC3(CCC3)Oc3ncc(CC(C)(C)C)cc32)C1 [compound 744]	333	266	0.372	900	0.075	11.2			
CO[C@H](C)C(=O)N[C@@H](Cc1ccc2c(c1)OCO2)[C@H](O)CN[C@H]1CC2(CCC2)Oc2ccc(C[C@@H](C)F)cc21 [compound 556]				300			211	353	IC50 [1, 13]: 0.718 µM; IC50 [3, 14]: 0.446 µM; IC50 (CYP2D6; [15]): 1 µM
CO[C@H](C)C(=O)N[C@@H](Cc1cc(F)cc(F)c1)[C@H](O)CN[C@H]1CC2(CCC2)Oc2c(-c3cncs3)cc(CC(C)C)cc21 [compound 491]				200			345	285	IC50 [1, 13]: 0.004 µM; IC50 [3, 14]: 0.036 µM; IC50 (CYP2D6; [15]): 6.2 µM
CCOCC(=O)N[C@@H](Cc1ccc(F)c(-c2nccs2)c1)[C@H](O)CN[C@H]1CC2(CCC2)Oc2ncc(CC(C)(C)C)cc21 [compound 904]				100			38	47	IC50 [1, 10]: 0.004 µM; IC50 [3, 11]: 0.062 µM; IC50 (CYP2D6; [12]): 0.5 µM
CC(=O)N[C@@H](Cc1cc(F)cc(-c2cccnc2)c1)[C@H](O)CN[C@H]1CC2(CCC2)Oc2ccc(CC(C)(C)C)cc21 [compound 649]	706	482		300					IC50 [1, 5]: 0.007 µM; IC50 [3, 6]: 0.03 µM; IC50 (CYP2D6; 2D6 IC50, CYP2D6 inhibition): 0.5 µM
COC(OC)C(=O)N[C@@H](Cc1cc(F)cc(-c2nccs2)c1)[C@H](O)CN[C@H]1CC2(CCC2)Oc2ncc(CC(C)(F)F)cc21 [compound 818]				600			41	46	IC50 [1, 10]: 0.013 µM; IC50 ([3]; HEK293, HEK cell-based assay, IC50's in uM, read-out: HEK cell assay): 0.059 µM; IC50 (CYP2D6; [15]): 2.3 µM
CO[C@H](C)C(=O)N[C@@H](Cc1cccc(F)c1)[C@H](O)CN[C@H]1CC2(CCC2)Oc2c(-c3ccncc3)cc(CC(C)C)cc21 [compound 609]	64	137		100					IC50 [1, 5]: 0.008 µM; IC50 [3, 6]: 0.005 µM; IC50 (CYP2D6; 2D6 IC50, CYP2D6 inhibition): 2 µM
C#Cc1cc(F)cc(C[C@H](NC(C)=O)[C@H](O)CN[C@H]2CC3(CCC3)Oc3ncc(CC(C)(C)C)cc32)c1 [compound 713, N-((1S,2R)-3-(((4′S)-6′-(2,2-dimethylpropyl)-3′,4′-dihydrospiro[cyclobutane-1,2′-pyrano[2,3-b]pyridin]-4′-yl)amino)-1-(3-ethynyl-5-fluorobenzyl)-2-hydroxypropyl)acetamide]	75	58	0.003	100	0.015	1.2			
